Source: patent publication US20240140970A1, “A […], AND PREPARATION METHOD AND USE THEREOF” (ASCENTAWITS PHARMACEUTICALS, LTD., priority 2021, published 2024)
Several values for one entry are separate records, joined by “and”; a condition that tells them apart may be missing. Equal values may be shown once.

Assay: Stability of AST-2660 in human plasma at −20° C. and −70° C. for one month (LC-MS/MS)
Type: in vitro ADME
Description: The detection method established in example 4 was used to detect the content of AST-2660 in the human plasma to be tested.
Matrix: the mixed normal human plasma containing anticoagulant (K2 EDTA) • a: the internal standard working solution: AST-2660-D8 was taken, added with methanol, and diluted to prepare a solution containing about 100 ng per 1 ml. • b: the solution to be tested (no internal standard compound was added to the solution to be tested at this time): it was obtained by taking a blood sample to be tested. • c: the standard working solution (no internal standard compound was added to the standard working solution at this time): an appropriate amount of AST-2660 was taken and accurately weighed, dissolved with methanol, and diluted to prepare a solution containing about 1.0 mg per 1 ml, which was used as the standard working stock solution. An appropriate amount of the standard working stock solution was taken, added with the matrix and diluted to prepare standard working solutions with different concentrations containing about 200 ng, 160 ng, 100 ng, 50 ng, 10 ng, 2.0 ng, 1.0 ng and 0.5 ng per 1 ml, respectively. (The solution was stored at −70° C.) • d: the quality control sample solution: an appropriate amount of AST-2660 was taken and accurately weighed, dissolved with methanol, and diluted to prepare a solution containing about 10 μg per 1 ml, which was used as the quality control working stock solution. An appropriate amount of the quality control working stock solution was taken, added with matrix to prepare quality control working solutions with different concentrations containing about 150 ng, 60 ng, 15 ng, 1.5 ng and 0.5 ng per 1 ml. (The solution was stored at −70° C.)
The solution to be tested, the standard working solution and the quality control sample solution were thawed at room temperature and mixed uniformly. 100 μl of the above solution was respectively taken, added with 20 μl of the internal standard and 500 μl of methanol, and vortexed for 3 minutes to mix uniformly, and then centrifuged for 10 minutes at 2143 rcf. 450 μl of the supernatant was taken and dried, and 150 μl of methanol was added for redissolution, and sonicated. Then the plates were centrifuged for 3 minutes at 4° C. It was obtained by taking […] of supernatant.
Liquid phase conditions: A SHARC 1, 3 μm, 2.1*50 mm or chromatograph column with equivalent performance was used; the mobile phase was a methanol solution comprising low content of ammonium acetate; the mobile phase B was acetonitrile; the gradient elution was performed according to the following table, column temperature: 20° C.; injection volume: 5 μl.
Mass spectrometric conditions: electrospray ion source with negative ion scanning mode; spray potential: −4500 V; ion source temperature: 500° C.; collision energy (CE): −22 eV; declustering potential (DP): −55V; entrance potential (EP): −10V; collision chamber exit potential (CXP): −16V; dwell time: 100 ms; high purity nitrogen was used for all gases; AST-2660 ions pairs: m/z 147.0→m/z 62.9; the internal standard AST-2660-D8 ion pairs: m/z 155.0→m/z 62.9.
The AST-2660 standard working solution, blank sample, zero concentration sample, sample solution to be tested and quality control sample solution with different concentrations after extraction were respectively taken and injected into LC-MS/MS for detection.
Calculation results: the relationship function y=f (x) of the ratio of the peak area of the AST-2660 to that of the internal standard was obtained from AST-2660 standard working solutions with different concentrations. The ratio of the peak area of the AST-2660 to that of the internal standard was determined from the solution to be tested after extraction, and substituted into the relationship function y=f (x) to calculate the concentration of the metabolite II in the solution to be tested.

[1] = QC1 nominal 1.50 ng/ml, 28 days at −20° C.
[2] = QC1 nominal 1.50 ng/ml, 28 days at −70° C.
[3] = QC4 nominal 150 ng/ml, 28 days at −20° C.
[4] = QC4 nominal 150 ng/ml, 28 days at −70° C.

## O=P([O-])(N1CC1)N1CC1.[Na+] [AST-2660]
28 days of storage at −20° C.
  change of AST-2660 content (in words): reduced significantly
28 days of storage at −70° C.
  change of AST-2660 content (in words): almost no reduction
DilQC (10-fold dilution) nominal 1500 ng/ml, 28 days at −20° C.
  RE (%) vs nominal: −32.5%
DilQC (10-fold dilution) nominal 1500 ng/ml, 28 days at −70° C.
  RE (%) vs nominal: −6.2%
[1]
  AST-2660 concentration, Mean value: 1.11 ng/mL
  AST-2660 concentration, single replicates: 1.01 ng/mL and 1.03 ng/mL and 1.14 ng/mL and 1.25 ng/mL
  RE (%) vs nominal: −26.2%
[2]
  AST-2660 concentration, Mean value: 1.53 ng/mL
  AST-2660 concentration, single replicates: 1.52 ng/mL and 1.53 ng/mL and 1.59 ng/mL and 1.49 ng/mL
  RE (%) vs nominal: 2.2%
[3]
  AST-2660 concentration, Mean value: 146 ng/mL
  AST-2660 concentration, single replicates: 147 ng/mL and 141 ng/mL and 149 ng/mL and 145 ng/mL
  RE (%) vs nominal: −3.0%
[4]
  AST-2660 concentration, Mean value: 145 ng/mL
  AST-2660 concentration, single replicates: 142 ng/ml (2×) and 150 ng/ml and 145 ng/ml
  RE (%) vs nominal: −3.5%
